From patent US20100041672A1, “USE OF QUINOLINE DERIVATIVES IN THE TREATMENT OF PAIN AND IRRITABLE BOWEL SYNDROME” (GLAXO GROUP LIMITED, priority 2007, published 2010)
Entries after “also recorded” stand apart in the source; their conditions may differ.

How the values were obtained:
[1] = test system: male Sprague Dawley rats; experiment: rat intra rectal mustard oil model of visceral pain; assay type: in vivo; conditions: for reduction in behaviours compared to vehicle treated animals: behaviours counted 25 minutes; for statistical significance of reduction in behaviours vs vehicle: orally 60 minutes prior to mustard oil, all doses examined
Procedure: All behavioural responses consistent with the presence of pain were determined following intra rectal injection of mustard oil in male Sprague Dawley rats. Typical behavioural responses consistent with the presence of pain following intra-colonic mustard oil injection include: arching, abdominal lifting, abdominal tensing, stretching, extending the rear leg (when lying down), raising and lowering the testicles, tip-toeing and writhing.
Male Sprague Dawley rats (130 g-160 g) were briefly sedated with 50% oxygen/50% carbon dioxide and 0.2 ml of 3% mustard oil injected into the colorectum, 1.5 cm from the anus. The anus was plugged with vaseline and animals placed in observational cages to which they had previously been acclimatised for 45 minutes prior to mustard oil injection. The number of visceral pain related behaviours, which consisted primarily of abdominal arching, were counted over a 25 minute period and the animals culled by cervical dislocation.
In separate studies, the effects of alosetron (0.1, 0.3 and 1.0 mg/kg n=10 per group), gabapentin (10, 30 and 100 mg/kg n=10 per group) and amitriptyline (3, 10 and 30 mg/kg n=9-10 per group) or vehicle (saline for alosetron and amitriptyline 10% 1-Methyl-2-pyrolidone in saline for gabapentin n=10 per study) given sub cutaneously 15 minutes prior to injection of 3% mustard oil were examined on pain behaviour. Results in FIGS. 4, 5 and 6 are expressed as mean±sem percentage of behaviours compared to vehicle treated animals and were statistically compared to vehicle treated animals using a one way ANOVA with Dunnett's comparison, p<0.05 considered significant.
The effect of SB742457 (0.03, 0.1, 1.0, 3.0 and 10 mg/kg, n=10 per group for the 0.03, 0.1 and 10 mg/kg groups, and n=20 for the 1.0 and 3.0 mg/kg groups) or vehicle (saline n=20) given orally 60 minutes prior to injection of mustard oil (3% mustard oil, 70% ethanol in saline) were examined on pain behaviour. The total number of visceral pain related behaviours, which consisted primarily of abdominal arching, were counted over a 25 minute period and the animals culled by cervical dislocation. Behaviours were normalised as the percentage of the vehicle group mean and expressed as mean+/−sem. Data was combined from two studies and normalised as the percentage of the vehicle group mean for each individual study and expressed as mean+/−sem for both studies. Percentage of behaviours compared to vehicle treated animals were analysed statistically using a one way ANOVA with Dunnett's comparison, p<0.05 considered significant, FIG. 10.
The effect of SB792988A (0.03, 0.1, 0.3, 1.0, 3.0 and 10 mg/kg, n=9 for 1.0 mg/kg, n=10 per group for the 0.03, 0.1 and 3.0 mg/kg groups, n=20 per group for the 0.3 and 10 mg/kg groups) or vehicle (saline n=20) given orally 60 minutes prior to injection of mustard oil (3% mustard oil, 70% ethanol in saline) were examined on pain behaviour. The total number of visceral pain related behaviours, which consisted primarily of abdominal arching, were counted over a 25 minute period and the animals culled by cervical dislocation. Behaviours were normalised as the percentage of the vehicle group mean and expressed as mean+/−sem. Data was combined from two studies and normalised as the percentage of the vehicle group mean for each individual study and expressed as mean+/−sem for both studies. Percentage of behaviours compared to vehicle treated animals were analysed statistically using a one way ANOVA with Dunnett's comparison, p<0.05 considered significant, FIG. 11.

[2] = test system: rats; experiment: Chronic Constriction Injury (CCI) model of neuropathic pain in rats (mechanical allodynia, Von Frey hairs); assay type: in vivo, rat; conditions: 10 mg/kg b.i.d. po
Procedure: Under Isoflurane anaesthesia, the sciatic nerve in the left leg of the rat was exposed at mid thigh level and 4 loose ligatures of Chromic 4.0 gut tied around it. The wound was closed and secured with staples. The Sham operated animals underwent the same surgical technique except that the nerve was not ligated. […] The presence of mechanical (tactile) allodynia was assessed using the manual application of Von Frey hair monofilaments (Stoelting, Wood Dale, Ill., USA). Animals were placed in clear Perspex boxes on a raised perforated metallic platform, from below which the monofilaments were applied in ascending order to the plantar region of the hind paw (range: 1.4 g-26 g). Each hair was applied for approx. 3-5 seconds until a withdrawal response was observed. The lowest hair to give a withdrawal was recorded as the response after confirmation with reapplication of lower and/or higher hairs within the range tested.
All data are expressed as mean±s.e.m. Statistical analysis was carried out using Repeated Measures ANOVA (Statistica Version 6) to compare the vehicle treated groups with the drug treated groups (P<0.05 considered significant). Area Under Curve (AUC) calculations were performed within Excel and statistical analysis was carried out using a one-way ANOVA followed by Fischer LSD post-hoc test (Statistica Version 6) to compare the vehicle treated CCI and Sham groups with the drug treated groups (P<0.05 considered significant). Data recorded in Excel (Microsoft XP) and graphs produced in GraphPad Prism (Version 4).
By 8 days post-surgery neuropathy was beginning to develop as mechanical allodynia (assessed using mVFHs) was evident in all CCI operated groups compared to the Sham operated animals. This was maintained as a stable baseline until day 23 post-surgery (FIG. 12), when the animals were randomised and then chronically dosed with either SB742457 (10 mg/kg b.i.d. po), gabapentin (30 mg/kg b.i.d. po) or vehicle (1% methylcellulose; b.i.d. po) for 8 days (days 26-33 post-surgery). […] Three days after cessation of treatment the withdrawal thresholds of the drug treated groups had decreased back towards vehicle treated baseline levels.

[3] = 0.03 mg/kg orally 60 minutes prior to mustard oil
[4] = 0.1 mg/kg orally 60 minutes prior to mustard oil
[5] = 1.0 mg/kg orally 60 minutes prior to mustard oil
[6] = 3.0 mg/kg orally 60 minutes prior to mustard oil
[7] = 10 mg/kg orally 60 minutes prior to mustard oil

Row | SMILES | reduction in behaviours compared to vehicle treated animals [1, 3] [%] | reduction in behaviours compared to vehicle treated animals [1, 4] [%] | reduction in behaviours compared to vehicle treated animals [1, 5] [%] | reduction in behaviours compared to vehicle treated animals [1, 6] [%] | reduction in behaviours compared to vehicle treated animals [1, 7] [%] | statistical significance of reduction in behaviours vs vehicle [1] | reversal of mechanical allodynia after 5 days of dosing ([2]; after 5 days of dosing) | reversal of mechanical allodynia after 8 days of dosing ([2]; after 8 days of dosing) | time to significant reversal of CCI-induced mechanical allodynia ([2]; after a single dose) [h] | comparison with the positive control gabapentin (30 mg/kg b.i.d. po) ([2]; throughout the study) | reduction in behaviours compared to vehicle treated animals ([1]; 0.3 mg/kg orally 60 minutes prior to mustard oil) [%]
1 | O=S(=O)(c1ccccc1)c1cnc2c(N3CCNCC3)cccc2c1 [SB742457, 3-Phenylsulfonyl-8-piperazin-1-yl-quinoline] | 56 | 56 | 44 | 50 | 62 | statistically significant from vehicle treated animals at all doses examined | not significantly different to Sham levels; also recorded: maximal reversal back to Sham levels | maximal reversal (P<0.001) back to Sham levels | ≤ 1 | not significantly different to each other | 
2 | Cl.O=S(=O)(c1cccc(F)c1)c1cnc2c(N3CCNCC3)cccc2c1 [SB792988A, 3-[(3-Fluorophenyl)sulfonyl]-8-(1-piperazinyl)quinoline Hydrochloride] | 38 | 40 | 55 | 65 | 74 | statistically significant from vehicle treated animals at all doses examined |  |  |  |  | 42
